Assay results taken from patent US11453669B2, “Polycyclic pyridone derivative” (Shionogi & Co., Ltd., priority 2018, dated 2022).
Read-outs that look alike come from different tables or passages of the source.

Experiments:
HIV [1] = assay: Anti-HIV activity (MT-4 cells, MTT); type: cell-based; conditions: read-out: EC50_nM (50% HIV inhibitory concentration)
Procedure: Serial dilutions of a test sample were prepared in a 96-well microplate (50 μL/well). 2.5×10^5 cells/mL of an MT-4 cell suspension was dispensed at 100 μL/well to the plate containing the test sample. Then, an HIV virus solution was dispensed at 50 μL/well. The plate was mixed with a plate mixer and cultured for 4 days in a CO2 incubator. An MTT (3-(4,5-dimethylthiazol-2-yl)-2,5-diphenyltetrazolium bromide) solution was dispensed at 30 μL/well. The plate was reacted for 1 hour in a CO2 incubator. 150 μL of the supernatant was removed from each well so as not to take up the cells. 150 μL of a cell lysis solution was added to each well and well mixed with a plate mixer until the cells were completely lysed. The absorbance of the mixed plate was measured at two wavelengths of 560 nm and 690 nm using a microplate reader.

[2] = system: HIV mutant strain 1 (E138K/G140S/Q148H/N155H); type: cell-based; conditions: FC=EC50 of the mutant strain/EC50 of the wild strain, HeLa-CD4 cells
Procedure: (§1) Serial dilutions of a test sample were prepared in a 96-well microplate (50 μL/well). 2.5×10^5 cells/mL of a HeLa-CD4 cell suspension was dispensed at 100 μL/well to the plate containing the test sample. Then, an HIV virus solution (wild strain and mutant strain) was dispensed at 50 μL/well. The plate was mixed with a plate mixer and cultured for 3 days in a CO2 incubator. The culture supernatant in each well was removed by suction. A cell lysis buffer in a reporter assay kit was dispensed at 100 μL/well, and the plate was frozen in a freezer (−80° C.). The plate frozen in a freezer was thawed at room temperature, then mixed with a plate mixer, and centrifuged at 1,200 rpm for 5 minutes. The supernatant of each well was dispensed at 20 μL/well to a 96-well microplate (BLACK). A chemiluminescent in the reporter assay kit reagent was dispensed at 100 μL/well and reacted at room temperature for approximately 1 hour. Then, luminescence intensity was measured using MicroBeta TRILUX.

[3] = system: HIV mutant strain 2 (E92Q/E138T/G140S/Q148H); type: cell-based; conditions: FC=EC50 of the mutant strain/EC50 of the wild strain, HeLa-CD4 cells
Procedure: as §1

[4] = system: HIV mutant strain 3 (E92Q/E138K/G140S/Q148H); assay: Resistance evaluation test, HeLa-CD4 reporter assay, mutant strain 3; type: cell-based; conditions: FC=EC50 of the mutant strain/EC50 of the wild strain, HeLa-CD4 cells
Procedure: as §1, with “TRILUX. […] FC=EC50 of the mutant strain/EC50 of the wild strain (Results) The FC for mutant strain 1 (E138K/G140S/Q148H/N155H) and the FC for mutant strain 2 (E92Q/E138T/G140S/Q148H) are shown in the table.” for “TRILUX.”

[5] = system: HIV mutant strain 4 (T97A/E138T/G140S/Q148H); assay: Resistance evaluation test, HeLa-CD4 reporter assay, mutant strain 4; type: cell-based; conditions: FC=EC50 of the mutant strain/EC50 of the wild strain, HeLa-CD4 cells
Procedure: as §1, with “TRILUX. […] FC=EC50 of the mutant strain/EC50 of the wild strain (Results) The FC for mutant strain 1 (E138K/G140S/Q148H/N155H) and the FC for mutant strain 2 (E92Q/E138T/G140S/Q148H) are shown in the table.” for “TRILUX.”

[6] = molecular target: T1, Voltage gated sodium channel (Nav1.5 channel) encoded by SCN5A gene (Homo sapiens, UniProt Q14524); assay: Nav test (QPatch whole cell patch clamp); type: cell-based; conditions: HEK cells expressing Nav1.5, applied 5 minutes or more, room temperature
T1 construct: expressed in transfected cells; host or cells: HEK cells
Procedure: A cell was retained at a membrane potential of −100 mV by whole cell patch clamp method using a fully automated patch clamp system (QPatch; Sophion Bioscience A/S), and INa induced by depolarization pulse stimulation at −10 mV for 20 ms was recorded. […] The extracellular solution in which the medium and the compound of the present invention had been dissolved at each objective concentration was applied to the cell for 5 minutes or more under conditions of room temperature.

[7] = type: in vitro ADME; conditions: human, 30 min, 0.5 μmol/L, pH 7.4
Procedure: Using commercially available pooled human liver microsomes, a compound of the present invention was reacted for a constant time, and a remaining rate was calculated by comparing a reacted sample and an unreacted sample, thereby, a degree at which the compound of the present invention was metabolized in liver was assessed.
A reaction was performed (oxidative reaction) at 37° C. for 0 minute or 30 minutes in the presence of 1 mmol/L NADPH in 0.2 mL of a buffer solution (50 mmol/L Tris-HCl pH 7.4, 150 mmol/L potassium chloride, 10 mmol/L magnesium chloride) containing 0.5 mg protein/mL of human liver microsomes. After the reaction, 50 μL of the reaction solution was added to 100 μL of a solution of methanol/acetonitrile=1/1 (v/v), and the mixture was mixed and centrifuged at 3000 rpm for 15 minutes. The compound of the present invention in the centrifugation supernatant was quantified by LC/MS/MS or solid-phase extraction (SPE)/MS. The amount of the compound of the present invention remaining after the reaction was calculated with the amount of the compound at 0 minutes of the reaction defined as 100%.

HIV [8] = assay: Anti-HIV activity evaluation test using PBMC of a healthy subject; type: cell-based; conditions: Human immunodeficiency virus 1, 96 h, read-out: 90% HIV inhibitory concentration (EC90); PHA-stimulated PBMC, cultured 4 days, reverse transcriptase activity
Procedure: Serial dilutions of a test sample were prepared in a 96-well microplate (50 μL/well). PBMC stimulated with 1.0×10^5 cells/well of Phytohemagglutinin (PHA) and an HIV virus solution were mixed for the required number of wells, and the mixture was reacted at 37° C. for 1 hour. After the reaction, the cell suspension was centrifuged and the supernatant discarded. The infected cells were dispersed in a culture solution for the required number of wells at 150 μL/well, and 150 μL/well was dispensed to a 96-well microplate containing a test sample. The plate was mixed with a plate mixer and cultured for 4 days in a C02 incubator. The reverse transcriptase activity in the culture solution was measured.

HIV [9] = assay: Anti-HIV activity evaluation test in the presence of human serum protein (MT-4 cells); type: cell-based; conditions: PS=4×(EC50 with 25% human serum protein/EC50 without), 100% extrapolated value
Procedure: Serial dilutions of a test sample were prepared in a 96-well microplate (50 μL/well). A human serum protein solution (human serum protein concentration: 50%) was dispensed into a 96-well microplate containing a test sample in an amount of 100 μL/well, and left standing at room temperature for 1 hour. 100 μL/well of the culture solution was dispensed to a plate without serum. 3.0×10^5 cells/well of MT-4 cells and 3 μL/well of HIV virus solution were mixed for the required number of wells and the mixture was reacted at 37° C. for 1 hour. After the reaction, the cell suspension was centrifuged and the supernatant discarded. The infected cells were dispersed in a culture solution for the required number of wells at 50 μL/well, and 50 μL/well was dispensed to a 96-well microplate containing the test sample and human serum protein (human serum protein final concentration: 25%). The plate was mixed with a plate mixer and cultured for 4 days in a CO2 incubator. An MTT (3-(4,5-dimethylthiazol-2-yl)-2,5-diphenyltetrazolium bromide) solution was dispensed at 30 μL/well. The plate was reacted for 1 hour in a CO2 incubator. 150 μL of the supernatant was removed from each well so as not to take up the cells. […] The absorbance of the mixed plate was measured at two wavelengths of 560 nm and 690 nm using a microplate reader. […]

CYP3A4 = molecular target: T2, CYP3A4 (Homo sapiens, UniProt P08684); assay: CYP3A4 (MDZ) MBI test; type: in vitro ADME; conditions: pooled human liver microsomes, midazolam 1-hydroxylation, IC 0 min preincubation/IC 30-min preincubation
T2 construct: from tissue; host or cells: pooled human liver microsomes
Procedure: This test as to the inhibition of CYP3A4 by the compound of the present invention is to evaluate mechanism based inhibition (MBI) ability from enhancement in inhibitory effect, caused by a metabolism reaction, of the compound of the present invention. CYP3A4 inhibition was evaluated using pooled human liver microsomes by 1-hydroxylation reaction of midazolam (MDZ) as a marker reaction. […]
A part of pre-reaction solution was transferred to another 96-well plate, and 1/10 diluted by K-Pi buffer solution containing a substrate. […] After each plate where the marker reaction has been performed was centrifuged at 3000 rpm for 15 minutes, 1-hydroxymidazolam in the centrifugation supernatant was quantified by LC/MS/MS.
Only a solvent DMSO used for dissolving the compound was added to the reaction solution instead of the compound of the present invention, and the mixture was used as a control (100%). Remaining activity (%) was calculated at the time of the addition of the compound of the present invention at each concentration, and IC value was calculated by inverse estimation based on a logistic model using the concentrations and the rates of inhibition. A shifted IC value is calculated from IC from the 0 min preincubation/IC from the 30-min preincubation. […]

[10] = Human immunodeficiency virus 1, MT4, 96 h

T1 sequence (Q14524 whole entry): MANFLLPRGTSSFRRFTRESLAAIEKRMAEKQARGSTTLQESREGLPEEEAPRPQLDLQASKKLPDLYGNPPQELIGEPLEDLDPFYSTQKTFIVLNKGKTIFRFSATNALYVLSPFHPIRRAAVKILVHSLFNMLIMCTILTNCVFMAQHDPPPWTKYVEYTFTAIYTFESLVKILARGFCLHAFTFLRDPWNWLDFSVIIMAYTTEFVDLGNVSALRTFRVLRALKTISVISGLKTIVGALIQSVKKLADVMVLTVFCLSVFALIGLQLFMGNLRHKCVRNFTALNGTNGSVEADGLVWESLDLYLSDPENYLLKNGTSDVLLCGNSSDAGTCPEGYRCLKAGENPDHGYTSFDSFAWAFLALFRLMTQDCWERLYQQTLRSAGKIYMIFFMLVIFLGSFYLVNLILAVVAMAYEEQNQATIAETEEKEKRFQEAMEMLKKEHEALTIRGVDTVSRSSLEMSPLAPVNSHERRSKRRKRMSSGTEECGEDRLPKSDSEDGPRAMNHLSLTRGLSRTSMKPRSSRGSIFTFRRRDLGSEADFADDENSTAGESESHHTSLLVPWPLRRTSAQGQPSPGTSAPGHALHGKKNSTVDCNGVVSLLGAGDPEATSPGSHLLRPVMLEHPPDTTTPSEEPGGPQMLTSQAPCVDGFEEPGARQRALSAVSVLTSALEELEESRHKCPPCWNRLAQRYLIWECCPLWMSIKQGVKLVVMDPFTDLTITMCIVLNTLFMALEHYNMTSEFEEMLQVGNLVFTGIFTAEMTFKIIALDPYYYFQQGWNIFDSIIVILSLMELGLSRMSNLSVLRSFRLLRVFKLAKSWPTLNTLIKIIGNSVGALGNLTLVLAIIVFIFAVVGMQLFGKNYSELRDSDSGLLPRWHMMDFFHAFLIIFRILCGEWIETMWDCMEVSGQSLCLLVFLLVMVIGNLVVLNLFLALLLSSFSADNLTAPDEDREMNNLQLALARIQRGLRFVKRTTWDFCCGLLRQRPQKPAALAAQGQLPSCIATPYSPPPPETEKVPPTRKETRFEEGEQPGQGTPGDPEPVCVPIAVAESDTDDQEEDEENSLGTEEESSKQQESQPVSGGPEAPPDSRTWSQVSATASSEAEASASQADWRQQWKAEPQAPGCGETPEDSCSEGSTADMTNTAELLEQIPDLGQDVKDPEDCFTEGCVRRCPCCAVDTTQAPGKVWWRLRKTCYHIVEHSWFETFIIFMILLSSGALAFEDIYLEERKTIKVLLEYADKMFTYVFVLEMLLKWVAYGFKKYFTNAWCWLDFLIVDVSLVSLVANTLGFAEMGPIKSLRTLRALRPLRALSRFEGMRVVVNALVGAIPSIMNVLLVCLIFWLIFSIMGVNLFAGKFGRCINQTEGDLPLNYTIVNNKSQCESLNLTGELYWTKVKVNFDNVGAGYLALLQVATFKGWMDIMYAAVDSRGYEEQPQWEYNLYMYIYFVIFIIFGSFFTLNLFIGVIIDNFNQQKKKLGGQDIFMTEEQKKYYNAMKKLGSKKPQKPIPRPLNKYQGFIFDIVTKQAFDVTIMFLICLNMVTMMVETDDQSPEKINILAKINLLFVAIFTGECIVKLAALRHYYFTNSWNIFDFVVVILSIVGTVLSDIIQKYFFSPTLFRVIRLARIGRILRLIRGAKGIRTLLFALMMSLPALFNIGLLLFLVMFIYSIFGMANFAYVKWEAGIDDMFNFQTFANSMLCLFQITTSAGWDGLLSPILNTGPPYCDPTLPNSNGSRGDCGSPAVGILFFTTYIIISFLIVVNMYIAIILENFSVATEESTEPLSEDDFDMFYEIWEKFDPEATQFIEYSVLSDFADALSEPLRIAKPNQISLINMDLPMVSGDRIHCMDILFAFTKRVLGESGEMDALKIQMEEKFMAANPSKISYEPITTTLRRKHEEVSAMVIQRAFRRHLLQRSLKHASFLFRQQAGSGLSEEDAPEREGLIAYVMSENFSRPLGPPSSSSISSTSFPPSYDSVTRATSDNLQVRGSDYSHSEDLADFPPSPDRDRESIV
T2 sequence (P08684 whole entry): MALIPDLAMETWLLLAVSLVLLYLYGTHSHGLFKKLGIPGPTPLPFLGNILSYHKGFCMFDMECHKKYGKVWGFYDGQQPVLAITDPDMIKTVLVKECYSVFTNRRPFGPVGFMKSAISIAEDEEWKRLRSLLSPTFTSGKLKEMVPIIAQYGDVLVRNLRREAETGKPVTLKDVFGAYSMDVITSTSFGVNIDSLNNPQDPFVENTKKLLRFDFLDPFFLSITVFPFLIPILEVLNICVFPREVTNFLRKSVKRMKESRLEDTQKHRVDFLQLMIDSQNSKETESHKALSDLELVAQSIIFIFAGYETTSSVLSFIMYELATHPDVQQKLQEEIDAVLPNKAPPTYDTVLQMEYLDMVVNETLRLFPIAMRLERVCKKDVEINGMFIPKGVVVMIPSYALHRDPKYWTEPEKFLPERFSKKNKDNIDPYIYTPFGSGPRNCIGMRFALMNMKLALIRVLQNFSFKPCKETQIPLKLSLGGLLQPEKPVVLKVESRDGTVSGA

Structure (SMILES) | EC50 (HIV [1]; MT-4 cells, cultured 4 days, MTT) | FC (fold change) for mutant strain 1 [2] | FC (fold change) for mutant strain 2 [3] | FC for mutant strain 3 [4] | FC for mutant strain 4 [5] | ratio of maximum peak current (INa) with compound relative to medium [6] | EC50 (HIV [1]; [10]) | residual rate [7] | EC90 (HIV [8]) | potency shift (PS) in the presence of human serum protein (HIV [9]) | CYP3A4 MBI grade (shifted IC) (CYP3A4)
CCN1C(=O)c2c(O)c(=O)c(-c3nnc(Cc4ccc(F)cc4F)s3)cn2N2CCCC[C@@H]12 [Compound I-002] | 3.2 nM | 5.6 | 7.5 | 7.7 | 3.2 | 102% |  |  |  |  | 
CCN1C(=O)c2c(O)c(=O)c(-c3nnc(Cc4c(F)cc(F)cc4F)s3)cn2N2CCCC[C@@H]12 [Compound I-008] |  | 3.8 | 6.9 |  |  | 103% | 1.6 nM | 97.7 | 1 nM | 116 | 
CCN1C(=O)c2c(O)c(=O)c(-c3nnc(Cc4ccc(F)cc4F)s3)cn2N2C[C@@H](C)C[C@@H]12 [II-023] |  | 4.1 | 2.5 |  |  | 93.3% | 1.2 nM | 98.3 | 1.7 nM | 56 | 
CCN1C(=O)c2c(O)c(=O)c(-c3nnc(Cc4c(F)cc(F)cc4F)s3)cn2N2[C@H](COC)CC[C@@H]12 [II-037] |  | 10 | 11 |  |  | 88.8% | 0.62 nM | 93.4 |  |  | (−) (shifted IC of 1.0 or less is graded as negative (−))
CCN1C(=O)c2c(O)c(=O)c(-c3nnc(Cc4ccc(F)cc4F)s3)cn2N2C[C@@H]3CC[C@@H](C3)[C@@H]12 [II-051] |  | 2.5 | 3.9 |  |  |  | 0.66 nM | 92.9 |  |  | (−) (shifted IC of 1.0 or less is graded as negative (−))
